{"source": "ChEMBL document CHEMBL5344418", "about": "“Recent developments in antimalarial activities of 4-aminoquinoline derivatives” (Eur J Med Chem, 2023)", "key": {"Plasmodium falciparum [1]": {"system": "Plasmodium falciparum", "test": "Antimalarial activity against CQ-resistant Plasmodium falciparum RKL9", "assay_type": "functional, organism-based"}, "Plasmodium falciparum [2]": {"system": "Plasmodium falciparum", "test": "Antimalarial activity against Plasmodium falciparum 3D7 assessed as inhibition of parasite growth", "assay_type": "functional, organism-based"}, "Plasmodium falciparum [3]": {"system": "Plasmodium falciparum", "test": "Antimalarial activity against chloroquine-sensitive Plasmodium falciparum NF54 assessed as reduction in cell growth", "assay_type": "functional, organism-based"}, "Plasmodium falciparum [4]": {"system": "Plasmodium falciparum", "test": "Antimalarial activity against chloroquine-resistant Plasmodium falciparum K1 assessed as reduction in cell growth", "assay_type": "functional, organism-based"}, "Plasmodium falciparum [5]": {"system": "Plasmodium falciparum", "test": "Antiplasmodial activity against chloroquine-resistant Plasmodium falciparum W2 assessed as parasitic growth inhibition incubated for 72 hrs by SYBR Green staining based fluorescence analysis", "assay_type": "functional, organism-based", "details": "W2, 72 h"}, "[6]": {"test": "Cytotoxicity against African green monkey Vero cells assessed as reduction in cell viability measured after 24 hrs", "assay_type": "toxicity, cell-based", "details": "African green monkey (Chlorocebus sabaeus)"}, "Plasmodium falciparum [7]": {"system": "Plasmodium falciparum", "test": "Antiplasmodial activity against chloroquine-sensitive Plasmodium falciparum 3D7 assessed as parasitic growth inhibition incubated for 72 hrs by SYBR Green staining based fluorescence analysis", "assay_type": "functional, organism-based", "details": "3D7, 72 h"}, "Plasmodium falciparum [8]": {"system": "Plasmodium falciparum", "test": "Antimalarial activity against chloroquine-sensitive Plasmodium falciparum 3D7 by SYBR green I assay", "assay_type": "functional, organism-based"}, "Plasmodium falciparum [9]": {"system": "Plasmodium falciparum", "test": "Antimalarial activity against chloroquine-resistant Plasmodium falciparum Dd2 assessed as reduction in parasitic growth incubated for 72 hrs by Giemsa-staining based microscopic analysis", "assay_type": "functional, organism-based", "details": "Dd2, 72 h"}, "Plasmodium falciparum [10]": {"system": "Plasmodium falciparum", "test": "Antimalarial activity against Plasmodium falciparum K1 assessed as inhibition of parasitic growth", "assay_type": "functional, organism-based"}, "Plasmodium falciparum [11]": {"system": "Plasmodium falciparum", "test": "Antimalarial activity against drug sensitive Plasmodium falciparum NF54 assessed as inhibition of parasite growth", "assay_type": "functional, organism-based"}, "HepG2": {"system": "HepG2", "test": "Cytotoxicity against human HepG2 cells assessed as cell growth inhibition measured after 72 hrs by MTT assay", "assay_type": "functional"}, "Plasmodium falciparum [12]": {"system": "Plasmodium falciparum", "test": "Antiplasmodial activity against Plasmodium falciparum 3D7 infected in human erythrocytes assessed as growth inhibition after 72 hrs by SYBR Gren-I fluorescent dye based method", "assay_type": "functional, organism-based", "details": "3D7, 72 h"}, "Plasmodium falciparum [13]": {"system": "Plasmodium falciparum", "test": "Antimalarial activity against chloroquine resistant Plasmodium falciparum FcB1/Colombia assessed as inhibition of parasite growth incubated for 24 hrs by liquid scintillation spectrometer analysis", "assay_type": "functional, organism-based"}, "Plasmodium falciparum [14]": {"system": "Plasmodium falciparum", "test": "Antimalarial activity against Plasmodium falciparum 3D7 assessed as inhibition of parasite growth incubated for 96 hrs", "assay_type": "functional, organism-based", "details": "3D7, 96 h"}, "Plasmodium falciparum [15]": {"system": "Plasmodium falciparum", "test": "Antimalarial activity against chloroquine-resistant Plasmodium falciparum Dd2 assessed as inhibition of parasite growth", "assay_type": "functional, organism-based"}, "Plasmodium falciparum [16]": {"system": "Plasmodium falciparum", "test": "Antiplasmodial activity against Plasmodium falciparum K1 infected in human Erythrocyte measured after 72 hrs by SYBR green fluorescence dye based microplate reader analysis", "assay_type": "functional, organism-based"}, "Plasmodium falciparum [17]": {"system": "Plasmodium falciparum", "test": "Antiplasmodial activity against Plasmodium falciparum Dd2 infected in human Erythrocyte measured after 72 hrs by SYBR green fluorescence dye based microplate reader analysis", "assay_type": "functional, organism-based"}, "Plasmodium falciparum [18]": {"system": "Plasmodium falciparum", "test": "Antiplasmodial activity against chloroquine-sensitive Plasmodium falciparum 3D7 infected in human erythrocyte incubated for 72 hrs by SYBR green I staining based fluorescence assay", "assay_type": "functional, organism-based", "details": "3D7, Erythrocyte"}, "Plasmodium berghei": {"system": "Plasmodium berghei", "test": "Antimalarial activity against liver stage Plasmodium berghei", "assay_type": "functional, organism-based"}}}
{"smiles": "COc1cc(/C=N/Nc2ccnc3cc(Cl)ccc23)ccc1O", "values": [{"measurement": "IC50", "setting": "Plasmodium falciparum [1]", "result": 0.009, "unit": "µM"}, {"measurement": "IC50", "setting": "Plasmodium falciparum [2]", "result": 0.009, "unit": "µM"}]}
{"smiles": "C#Cc1ccc(-c2cn(CCNc3ccnc4cc(Cl)ccc34)nn2)c(F)c1", "values": [{"measurement": "IC50", "setting": "Plasmodium falciparum [3]", "result": 0.19, "unit": "µM"}, {"measurement": "IC50", "setting": "Plasmodium falciparum [4]", "result": 0.21, "unit": "µM"}]}
{"smiles": "C#Cc1ccc(-c2cn(CCNc3ccnc4cc(Cl)ccc34)nn2)cc1", "values": [{"measurement": "IC50", "setting": "Plasmodium falciparum [4]", "result": 0.18, "unit": "µM"}]}
{"smiles": "OB1OCc2ccc(OCc3cn(CCNc4ccnc5cc(Cl)ccc45)nn3)cc21", "values": [{"measurement": "IC50", "setting": "Plasmodium falciparum [5]", "result": 3.78, "unit": "µM"}, {"measurement": "IC50 at 24 h", "setting": "[6]", "result": "> 100", "unit": "µM"}, {"measurement": "IC50", "setting": "Plasmodium falciparum [7]", "result": 4.15, "unit": "µM"}]}
{"smiles": "CCCCCCCC(=O)NCCCC(C)Nc1ccnc2cc(Cl)ccc12", "note": "(stereo not given)", "values": [{"measurement": "IC50", "setting": "Plasmodium falciparum [8]", "result": 0.051, "unit": "µM"}, {"measurement": "IC50", "setting": "Plasmodium falciparum [9]", "result": 109, "unit": "µM"}]}
{"smiles": "CCCC(=O)NCCCC(C)Nc1ccnc2cc(Cl)ccc12", "note": "(stereo not given)", "values": [{"measurement": "IC50", "setting": "Plasmodium falciparum [8]", "result": 0.627, "unit": "µM"}, {"measurement": "IC50", "setting": "Plasmodium falciparum [9]", "result": 588, "unit": "µM"}]}
{"smiles": "CC1(C)[C@@H]2CC=C(CC(=O)Nc3ccnc4cc(Cl)ccc34)[C@H]1C2", "values": [{"measurement": "EC50", "setting": "Plasmodium falciparum [10]", "result": 7.84, "unit": "µM"}, {"measurement": "EC50", "setting": "Plasmodium falciparum [11]", "result": 21.4, "unit": "µM"}, {"measurement": "CC50", "setting": "HepG2", "result": 14.3, "unit": "µM"}, {"measurement": "EC50", "setting": "Plasmodium falciparum [12]", "result": 17.1, "unit": "µM"}]}
{"smiles": "CCOP(=O)(CCCN(O)C(=O)CCC(=O)N1CCN(c2ccnc3cc(Cl)ccc23)CC1)OCC", "values": [{"measurement": "IC50", "setting": "Plasmodium falciparum [13]", "result": 2.7, "unit": "µM"}]}
{"smiles": "OB1OCc2ccc(OCc3cn(CCCNc4ccnc5cc(Cl)ccc45)nn3)cc21", "values": [{"measurement": "IC50", "setting": "Plasmodium falciparum [5]", "result": 3.91, "unit": "µM"}, {"measurement": "IC50 at 24 h", "setting": "[6]", "result": "> 100", "unit": "µM"}, {"measurement": "IC50", "setting": "Plasmodium falciparum [7]", "result": 4.13, "unit": "µM"}]}
{"smiles": "O=C(O)CCCCCCCCCCCNc1ccnc2cc(Cl)ccc12", "values": [{"measurement": "IC50", "setting": "Plasmodium falciparum [14]", "result": 0.031, "unit": "µM"}, {"measurement": "IC50", "setting": "Plasmodium falciparum [15]", "result": 4, "unit": "µM"}]}
{"smiles": "CCCCCCCCCCCC(=O)NCCCC(C)Nc1ccnc2cc(Cl)ccc12", "note": "(stereo not given)", "values": [{"measurement": "IC50", "setting": "Plasmodium falciparum [8]", "result": 0.045, "unit": "µM"}, {"measurement": "IC50", "setting": "Plasmodium falciparum [9]", "result": 160, "unit": "µM"}]}
{"smiles": "CC(C)Cc1ccc(C(C)C(=O)NCCNc2ccnc3cc(Cl)ccc23)cc1", "note": "(stereo not given)", "values": [{"measurement": "IC50", "setting": "Plasmodium falciparum [14]", "result": 0.125, "unit": "µM"}, {"measurement": "IC50", "setting": "Plasmodium falciparum [15]", "result": 0.201, "unit": "µM"}]}
{"smiles": "C[C@H]1[C@H](OC(=O)CCC(=O)OCCNc2ccnc3cc(Cl)ccc23)O[C@@H]2O[C@@]3(C)CC[C@H]4[C@H](C)CC[C@@H]1[C@@]24OO3", "values": [{"measurement": "EC50", "setting": "Plasmodium falciparum [16]", "result": 0.0017, "unit": "µM"}, {"measurement": "EC50", "setting": "Plasmodium falciparum [17]", "result": 0.0023, "unit": "µM"}, {"measurement": "EC50", "setting": "Plasmodium falciparum [18]", "result": 0.0045, "unit": "µM"}]}
{"smiles": "OB1OCc2ccc(OCc3cn(CCN4CCN(c5ccnc6cc(Cl)ccc56)CC4)nn3)cc21", "values": [{"measurement": "IC50", "setting": "Plasmodium falciparum [5]", "result": 4.86, "unit": "µM"}, {"measurement": "IC50 at 24 h", "setting": "[6]", "result": 82.4, "unit": "µM"}, {"measurement": "IC50", "setting": "Plasmodium falciparum [7]", "result": 5.31, "unit": "µM"}]}
{"smiles": "C#CCCCN(CCNc1ccnc2cc(Cl)ccc12)C(=O)CCC(=O)O[C@@H]1O[C@@H]2O[C@@]3(C)CC[C@H]4[C@H](C)CC[C@@H]([C@H]1C)[C@@]24OO3", "values": [{"measurement": "EC50", "setting": "Plasmodium falciparum [16]", "result": 0.0013, "unit": "µM"}, {"measurement": "EC50", "setting": "Plasmodium falciparum [17]", "result": 0.0016, "unit": "µM"}, {"measurement": "EC50", "setting": "Plasmodium falciparum [18]", "result": 0.0035, "unit": "µM"}]}
{"smiles": "O=C(O)C(Cc1c[nH]c2ccccc12)Nc1ccnc2cc(Cl)ccc12", "note": "(stereo not given)", "values": [{"measurement": "IC50", "setting": "Plasmodium falciparum [14]", "result": 8, "unit": "µM"}, {"measurement": "IC50", "setting": "Plasmodium falciparum [15]", "result": 5, "unit": "µM"}]}
{"smiles": "CCOP(=O)(CCCN(O)C(=O)CCC(=O)NCCNc1ccnc2cc(Cl)ccc12)OCC", "values": [{"measurement": "IC50", "setting": "Plasmodium falciparum [13]", "result": 4.2, "unit": "µM"}]}
{"smiles": "CC1(C)[C@@H]2CC=C(CC(=O)Nc3ccnc4ccccc34)[C@H]1C2", "values": [{"measurement": "EC50", "setting": "Plasmodium falciparum [10]", "result": 13.9, "unit": "µM"}, {"measurement": "EC50", "setting": "Plasmodium falciparum [11]", "result": 23.4, "unit": "µM"}, {"measurement": "CC50", "setting": "HepG2", "result": 3.89, "unit": "µM"}, {"measurement": "EC50", "setting": "Plasmodium falciparum [12]", "result": 26.4, "unit": "µM"}]}
{"smiles": "O=[N+]([O-])c1ccc(/C=N/Nc2ccnc3cc(Cl)ccc23)cc1", "values": [{"measurement": "IC50", "setting": "Plasmodium falciparum [1]", "result": 0.009, "unit": "µM"}, {"measurement": "IC50", "setting": "Plasmodium falciparum [2]", "result": 0.009, "unit": "µM"}]}
{"smiles": "O=C(O)c1cn(C2CC2)c2cc(N3CCNCC3)c(F)cc2c1=O", "note": "[CIPROFLOXACIN]", "values": [{"measurement": "IC50", "setting": "Plasmodium berghei", "result": 0.06, "unit": "µM"}]}
